Earlier results in US7756644B2, “System and method for automated selection of T-cell epitopes” (priority 2005, dated 2010).

System: memory T-cells isolated from HLA-B7-positive EBV-seropositive individuals
Conditions: PNAS 1999

Sequence | recognition by memory T-cells / immunogenicity
QPRAPIRPI (EBNA 3C.881 peptide from Epstein-Barr virus) | is not
RPPIFIRRL [EBNA 3A.379] | recognized
